Source: patent publication US20210122739A1, “NOVEL SULFONAMIDE CARBOXAMIDE COMPOUNDS” (Inflazome Limited, priority 2017, published 2021)

Tests used:
NLRP3 [1] = target: T1, NLRP3 (Homo sapiens, UniProt Q96P20); experiment: Human whole blood IL1β release assay; type: cell-based; design: Plate out 80 μl of whole blood containing 1 μg/ml of LPS; from tissue; host or cells: human whole blood from healthy donors, LPS-primed, nigericin-stimulated; settings: 1 μg/ml LPS, nigericin 10 μM, IL-1β by AlphaLisa, read-out: HWB IC50
Method: For systemic delivery, the ability to inhibit NLRP3 when the compounds are present within the bloodstream is of great importance. For this reason, the NLRP3 inhibitory activity of a number of compounds in human whole blood was investigated in accordance with the following protocol.
Human whole blood in Li-heparin tubes was obtained from healthy donors from a volunteer donor panel. • 1. Plate out 80 μl of whole blood containing 1 μg/ml of LPS in 96-well, clear bottom cell culture plate (Corning #3585) • 2. Add 10 μl compound (8 points half-log dilution with 10 μM top dose) or vehicle (DMSO 0.1% FAC) to the appropriate wells • 3. Incubate for 3 hrs at 37° C., 5% CO2 • 4. Add 10 μl Nigericin (Sigma #N7143) (10 μM FAC) to all wells • 5. Incubate for 1 hr at 37° C., 5% CO2 • 6. At the end of the incubation period, spin plates at 300×g for 5 mins to pellet cells and remove 20 μl of supernatant and add to 96-well v-bottom plates for IL-1β analysis (note: these plates containing the supernatants can be stored at −80° C. to be analysed at a later date) • 7. IL-1β was measured according to the manufacturer protocol (Perkin Elmer-AlphaLisa IL-1 Kit AL220F-5000) • 8. IC50 data is fitted to anon-linear regression equation (log inhibitor vs response-variable slope 4-parameters)

NLRP3 [2] = target: T1, NLRP3; experiment: THP-1 cells pyroptosis assay; type: cell-based; design: Seed THP-1 cells (25,000 cells/well) containing 1.0 μg/ml LPS; host or cells: THP-1 cells, LPS-primed, nigericin-stimulated; settings: 1.0 μg/ml LPS, nigericin 5 μM, resazurin readout
Source text: It is well established that the activation of NLRP3 leads to cell pyroptosis and this feature plays an important part in the manifestation of clinical disease (Yan-gang Liu et al., Cell Death & Disease, 2017, 8(2), e2579; Alexander Wree et al., Hepatology, 2014, 59(3), 898-910; Alex Baldwin et al., Journal of Medicinal Chemistry, 2016, 59(5), 1691-1710; Ema Ozaki et al., Journal of Inflammation Research, 2015, 8, 15-27; Zhen Xie & Gang Zhao, Neuroimmunology Neuroinflammation, 2014, 1(2), 60-65; Mattia Cocco et al., Journal of Medicinal Chemistry, 2014, 57(24), 10366-10382; T. Satoh et al., Cell Death & Disease, 2013, 4, e644). Therefore, it is anticipated that inhibitors of NLRP3 will block pyroptosis, as well as the release of pro-inflammatory cytokines (e.g. IL-1β) from the cell.
THP-1 cells (ATCC #TIB-202) were grown in RPMI containing L-glutamine (Gibco #11835) supplemented with 1 mM sodium pyruvate (Sigma #S8636) and penicillin (100 units/ml)/streptomycin (0.1 mg/ml) (Sigma #P4333) in 10% Fetal Bovine Serum (FBS) (Sigma #F0804). The cells were routinely passaged and grown to confluency (˜10^6 cells/ml). On the day of the experiment, THP-1 cells were harvested and resuspended into RPMI medium (without FBS). The cells were then counted and viability (>90%) checked by Trypan blue (Sigma #T8154). Appropriate dilutions were made to give a concentration of 625,000 cells/ml. To this diluted cell solution was added LPS (Sigma #L4524) to give a 1 μg/ml Final Assay Concentration (FAC). 40 μl of the final preparation was aliquoted into each well of a 96-well plate. The plate thus prepared was used for compound screening.
The following method step-by-step assay was followed for compound screening. • 1. Seed THP-1 cells (25,000 cells/well) containing 1.0 μg/ml LPS in 40 μl of RPMI medium (without FBS) in 96-well, black walled, clear bottom cell culture plates coated with poly-D-lysine (VWR #734-0317) • 2. Add […] compound (8 points half-log dilution, with 10 μM top dose) or vehicle (DMSO 0.1% FAC) to the appropriate wells • 3. Incubate for 3 hrs at 37° C. in 5% CO2 • 4. Add 5 μl nigericin (Sigma #N7143) (FAC 5 μM) to all wells • 5. Incubate for 1 hr at 37° C. and 5% CO2 • 6. At the end of the incubation period, spin plates at 300×g for 3 mins and remove supernatant • 7. Then add 50 μl of resazurin (Sigma #R7017) (FAC 100 μM resazurin in RPMI medium without FBS) and incubate plates for a further 1-2 hrs at 37° C. and 5% CO2 • 8. Plates were read in an Envision reader at Ex 560 nm and Em 590 nm • 9. IC50 data is fitted to a non-linear regression equation (log inhibitor vs response-variable slope 4-parameters)

T1 sequence (Q96P20 whole entry): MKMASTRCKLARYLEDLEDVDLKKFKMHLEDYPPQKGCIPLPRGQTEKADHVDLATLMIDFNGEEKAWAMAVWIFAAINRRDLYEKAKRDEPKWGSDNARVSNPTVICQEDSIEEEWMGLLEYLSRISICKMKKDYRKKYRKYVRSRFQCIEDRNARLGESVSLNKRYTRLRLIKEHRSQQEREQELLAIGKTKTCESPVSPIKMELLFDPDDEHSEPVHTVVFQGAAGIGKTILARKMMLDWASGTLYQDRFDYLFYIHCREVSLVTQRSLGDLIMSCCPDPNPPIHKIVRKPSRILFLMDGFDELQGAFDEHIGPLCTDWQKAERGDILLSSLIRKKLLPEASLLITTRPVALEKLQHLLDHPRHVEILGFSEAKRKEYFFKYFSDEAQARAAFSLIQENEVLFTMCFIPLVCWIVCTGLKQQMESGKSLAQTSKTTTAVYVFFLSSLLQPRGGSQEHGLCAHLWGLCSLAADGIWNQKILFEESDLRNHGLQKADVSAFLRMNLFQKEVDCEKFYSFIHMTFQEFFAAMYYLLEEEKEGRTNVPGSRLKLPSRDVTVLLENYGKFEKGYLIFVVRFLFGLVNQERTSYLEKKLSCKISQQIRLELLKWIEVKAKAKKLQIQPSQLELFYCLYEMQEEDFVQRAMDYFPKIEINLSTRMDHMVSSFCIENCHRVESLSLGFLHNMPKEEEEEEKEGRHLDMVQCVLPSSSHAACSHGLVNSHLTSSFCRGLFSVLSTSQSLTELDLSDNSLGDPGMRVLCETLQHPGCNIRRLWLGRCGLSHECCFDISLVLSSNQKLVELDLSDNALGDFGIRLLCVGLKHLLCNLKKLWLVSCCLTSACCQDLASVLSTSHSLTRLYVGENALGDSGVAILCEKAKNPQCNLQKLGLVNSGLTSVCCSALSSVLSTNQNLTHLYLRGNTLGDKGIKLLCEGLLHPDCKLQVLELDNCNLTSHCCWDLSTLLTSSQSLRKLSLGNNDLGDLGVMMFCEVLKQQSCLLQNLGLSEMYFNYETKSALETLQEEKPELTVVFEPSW

Structure (SMILES)	IC50 (NLRP3 [1])	IC50 (NLRP3 [2])
Cn1nc(S(=O)(=O)NC(=O)Nc2c3c(cc4c2CCC4)CCC3)cc1C(=O)N1CCC1 [Example 54, 5-(Azetidine-1-carbonyl)-N-((1,2,3,5,6,7-hexahydro-s-indacen-4-yl)carbamoyl)-1-methyl-1H-pyrazole-3-sulfonamide]	1.6 to 3.2 µM	0.04 to 0.16 µM
CCN(CCO)C(=O)c1cc(S(=O)(=O)NC(=O)Nc2c3c(cc4c2CCC4)CCC3)nn1C [Example 20, N-Ethyl-3-(N-((1,2,3,5,6,7-hexahydro-s-indacen-4-yl)carbamoyl)sulfamoyl)-N-(2-hydroxyethyl)-1-methyl-1H-pyrazole-5-carboxamide]	0.8 to 1.6 µM	0.16 to 0.64 µM
CNC(=O)Cn1ccc(S(=O)(=O)NC(=O)Nc2c3c(cc4c2CCC4)CCC3)n1 [Example 2, 2-(3-(N-((1,2,3,5,6,7-Hexahydro-s-indacen-4-yl)carbamoyl)sulfamoyl)-1H-pyrazol-1-yl)-N-methylacetamide]	1.6 to 3.2 µM	0.16 to 0.64 µM
CN(C)C(=O)C(C)(C)n1ccc(S(=O)(=O)NC(=O)Nc2c3c(cc4c2CCC4)CCC3)n1 [Example 83, 2-(3-(N-((1,2,3,5,6,7-Hexahydro-s-indacen-4-yl)carbamoyl)sulfamoyl)-1H-pyrazol-1-yl)-N,N,2-trimethylpropanamide]	0.8 to 1.6 µM	0.04 to 0.16 µM
CC(C)c1ccc(C(C)C)c(NC(=O)NS(=O)(=O)c2cc(C(=O)N(C)C)n(C)n2)c1 [Example 44, 3-(N-((2,5-Diisopropylphenyl)carbamoyl)sulfamoyl)-N,N,1-trimethyl-1H-pyrazole-5-carboxamide]	3.2 to 10 µM	0.16 to 0.64 µM
CN(CC#N)C(=O)c1cc(S(=O)(=O)NC(=O)Nc2c3c(cc4c2CCC4)CCC3)nn1C [Example 53, N-(Cyanomethyl)-3-(N-((1,2,3,5,6,7-hexahydro-s-indacen-4-yl)carbamoyl)sulfamoyl)-N,1-dimethyl-1H-pyrazole-5-carboxamide]	0.8 to 1.6 µM	0.16 to 0.64 µM
CN(C)C(=O)Cn1ccc(S(=O)(=O)NC(=O)Nc2c3c(cc4c2CCC4)CCC3)n1 [Example 1, 2-(3-(N-((1,2,3,5,6,7-Hexahydro-s-indacen-4-yl)carbamoyl)sulfamoyl)-1H-pyrazol-1-yl)-N,N-dimethylacetamide]	3.2 to 10 µM	0.16 to 0.64 µM
CC(C)c1cccc(C(C)C)c1NC(=O)NS(=O)(=O)c1cc(C(=O)N(C)C2CC2)n(C)n1 [Example 43, N-Cyclopropyl-3-(N-((2,6-diisopropylphenyl)carbamoyl)sulfamoyl)-N,1-dimethyl-1H-pyrazole-5-carboxamide]	0.8 to 1.6 µM	0.04 to 0.16 µM
CC(C)Oc1cc(-c2cc(F)cc(C(C)C)c2NC(=O)NS(=O)(=O)c2cc(C(=O)N(C)C)n(C)n2)ccn1 [Example 81, 3-(N-((4-Fluoro-2-(2-isopropoxypyridin-4-yl)-6-isopropyl-phenyl)carbamoyl)sulfamoyl)-N,N,1-trimethyl-1H-pyrazole-5-carboxamide]	1.6 to 3.2 µM	0.16 to 0.64 µM
CN(C(=O)c1cc(S(=O)(=O)NC(=O)Nc2c3c(cc4c2CCC4)CCC3)nn1C)C1CCC1 [Example 7, N-Cyclobutyl-3-(N-((1,2,3,5,6,7-hexahydro-s-indacen-4-yl)carbamoyl)sulfamoyl)-N,1-dimethyl-1H-pyrazole-5-carboxamide]	3.2 to 10 µM	0.16 to 0.64 µM
CNC(=O)c1cc(S(=O)(=O)NC(=O)Nc2c(C(C)C)cc(Cl)cc2C(C)C)nn1C [Example 32, 3-(N-((4-Chloro-2,6-diisopropylphenyl)carbamoyl)sulfamoyl)-N,1-dimethyl-1H-pyrazole-5-carboxamide]	1.6 to 3.2 µM	0.16 to 0.64 µM
CCN(CC)C(=O)c1cc(S(=O)(=O)NC(=O)Nc2c3c(cc4c2CCC4)CCC3)nn1C [Example 65, N,N-Diethyl-3-(N-((1,2,3,5,6,7-hexahydro-s-indacen-4-yl)carbamoyl)sulfamoyl)-1-methyl-1H-pyrazole-5-carboxamide]	0.8 to 1.6 µM	0.04 to 0.16 µM
CC(C)c1cc(F)cc(C(C)C)c1NC(=O)NS(=O)(=O)c1cc(C(=O)N(C)C(C)C)n(C)n1 [Example 47, 3-(N-((4-Fluoro-2,6-diisopropylphenyl)carbamoyl)sulfamoyl)-N-isopropyl-N,1-dimethyl-1H-pyrazole-5-carboxamide]	0.4 to 0.8 µM	0.04 to 0.16 µM

More lines, now with the values ahead:

IC50 (NLRP3 [1])	IC50 (NLRP3 [2])	Structure (SMILES)
< 0.4 µM	0.16 to 0.64 µM	CC(C)c1cc(F)cc(-c2cncnc2)c1NC(=O)NS(=O)(=O)c1cc(C(=O)N(C)C)n(C)n1 [Example 42, 3-(N-((4-Fluoro-2-isopropyl-6-(pyrimidin-5-yl)phenyl)carbamoyl)sulfamoyl)-N,N,1-trimethyl-1H-pyrazole-5-carboxamide]
< 0.4 µM	0.16 to 0.64 µM	CNC(=O)c1cc(S(=O)(=O)NC(=O)Nc2c(C(C)C)cc(F)cc2C(C)C)nn1C [Example 50, 3-(N-((4-Fluoro-2,6-diisopropylphenyl)carbamoyl)sulfamoyl)-N,1-dimethyl-1H-pyrazole-5-carboxamide]
< 0.4 µM	0.04 to 0.16 µM	CN(CCO)C(=O)c1cc(S(=O)(=O)NC(=O)Nc2c3c(cc4c2CCC4)CCC3)nn1C [Example 78, 3-(N-((1,2,3,5,6,7-Hexahydro-s-indacen-4-yl)carbamoyl)sulfamoyl)-N-(2-hydroxyethyl)-N,1-dimethyl-1H-pyrazole-5-carboxamide]
< 0.4 µM	< 0.04 µM	COc1cc(-c2ccc3c(c2NC(=O)NS(=O)(=O)c2cc(C(=O)N(C)C)n(C)n2)CCC3)ccn1 [Example 82, 3-(N-((5-(2-Methoxypyridin-4-yl)-2,3-dihydro-1H-inden-4-yl)carbamoyl)sulfamoyl)-N,N,1-trimethyl-1H-pyrazole-5-carboxamide]
0.4 to 0.8 µM	0.16 to 0.64 µM	CNC(=O)c1cc(S(=O)(=O)NC(=O)Nc2c(C(C)C)cccc2C(C)C)nn1C [Example 55, 3-(N-((2,6-Diisopropylphenyl)carbamoyl)sulfamoyl)-N,1-dimethyl-1H-pyrazole-5-carboxamide]
< 0.4 µM	0.16 to 0.64 µM	CC(C)c1cccc(C(C)C)c1NC(=O)NS(=O)(=O)c1cc(C(=O)N2CCC2)n(C)n1 [Example 51, 5-(Azetidine-1-carbonyl)-N-((2,6-diisopropylphenyl)carbamoyl)-1-methyl-1H-pyrazole-3-sulfonamide]
0.4 to 0.8 µM	0.04 to 0.16 µM	COCCN(CCOC)C(=O)c1cc(S(=O)(=O)NC(=O)Nc2c3c(cc4c2CCC4)CCC3)nn1C [Example 26, 3-(N-((1,2,3,5,6,7-Hexahydro-s-indacen-4-yl)carbamoyl)sulfamoyl)-N,N-bis(2-methoxyethyl)-1-methyl-1H-pyrazole-5-carboxamide]
